Reference: patent US20200085814A1, “COMBINATION OF CERTINIB WITH AN EGFR INHIBITOR” (Novartis AG, priority 2014, published 2020)
Entries after “also recorded” stand apart in the source; their conditions may differ. Read-outs that look alike come from different tables or passages of the source.

Assays:
NCI-H2228 cells = assay: Secretome screening, CellTiter-Glo cell proliferation in presence of ceritinib; format: cell-based; settings: 0.5 μM ceritinib, conditioned supernatant, 96 hours
Description: NCI-H2228 was obtained from ATCC. The cell lines harbored EML4-ALK rearrangements. NCI-H2228 cells were cultured in RPMI-1640 (ATCC Catalog #30-2001) supplemented with 15% FBS.
Secretome screening was performed as described previously (Lito P, Pratilas C A, et al. Cancer Cell 2012; 22: 668-82). In brief, 317 cDNA constructs that represent 220 unique secreted proteins were reverse transfected into HEK293T cells individually and incubated 4 days to allow accumulation of secreted proteins in supernatant. The supernatant was transferred to the assay cells, namely NCI-H2228 cells, followed by addition of ceritinib to a final concentration of 0.5 μM. Cell proliferation was measured using CellTiter-Glo after 96 hours. Cells treated with DMSO in the absence of conditioned media and with ceritinib alone were used as controls.
The Cell Titer Glo assay was done with H2228 cell line. The cell line stems from adenocarcinoma; non-small cell lung cancer. Cell Titer Glo assay is a Cell Viability Assay that determined the number of viable cells in culture based on quantitation of the ATP present, which signaled the presence of metabolically active cells.
“Ceritinib no ligand” represents cells that were treated with ceritinib only (absence of any ligand) and represents the impact of ceritinib on cell viability. […]

MGH049 cells [1] = assay: Cell proliferation assay (CellTiter-Glo), ceritinib dose response; format: cell-based; settings: 144 h; 0.3 μM ceritinib, 6 days, MGH049, relative to median DMSO signal; read-out: percent inhibition of cell proliferation
Description: (§1) MGH049 and MGH051 were obtained from Massachusetts General Hospital (Friboulet L, Li N, et al. Cancer Discovery 2014; 4: 662-73). These cell lines harbor EML4-ALK rearrangements. MGH049 and MGH051 were cultured in DMEM (ATCC Catalog #30-2002) supplemented with 10% FBS.
(§2) To determine the dose-response relationship between the dose of ceritinib and the magnitude of its effect on cell proliferation, 1K MGH049 and 4K MGH051 cells were plated in each well of 384 well-plates, and grown for 24 hours prior to treatment. Cells were then treated with DMSO or ceritinib at concentrations ranging from 4 nM to 1 μM (3-fold dilutions). After 6 days, cell proliferation was measured using the CellTiter-Glo luminescent cell viability assay. Percent inhibition was calculated relative to median DMSO signal.

MGH051 cells [2] = assay: as above; format: cell-based; settings: 144 h; 0.3 μM ceritinib, 6 days, MGH051, relative to median DMSO signal; read-out: percent inhibition of cell proliferation
Description: as §1, §2

MGH049 cells [3] = assay: Cell proliferation (CellTiter-Glo), EGFR inhibitors with or without ceritinib; format: cell-based
Description: (§3) These cell lines harbor EML4-ALK rearrangements.
(§4) Three replicate plates were set up for each cell line and drug compound, with or without ceritinib. A representative dose response curve was then calculated by taking the mean across the 3 replicates with and without ceritinib. Proliferation inhibition values were normalized to the measured inhibition value at zero dose of the compound, with and without ceritinib.
(§5) Experiments performed with cell lines MGH049 and MGH051 are depicted on FIG. 3 and FIG. 4, respectively.

[4] = test system: HER3 phosphorylation in ALK positive NSCLC cell lines; assay: Western blotting of whole cell lysates after short-term and long-term ceritinib treatment; format: cell-based; settings: long-term treatment, 4 ALK positive cell lines (FIG. 5)
Description: FIG. 5. […] Cells were harvested after short-term and long-term ceritinib (LDK378) treatment, and whole cell lysates were analyzed by Western blotting.
(§6) The activated states of ALK and HER3 of multiple NSCLC cell lines that harbor EML4-ALK translocations were assessed in both short-term and long-term cultures.

[5] = test system: AKT phosphorylation in MGH051 cells; assay: Western blotting, MGH051 cells, ceritinib 4 hours or 8 days, inhibitors added for last day; format: cell-based; settings: MGH051 (FIG. 6); for rebound in AKT phosphorylation: added for the last day of long-term (8 days) ceritinib treatment
Description: (§7) FIG. 6. […] MGH051 cells were treated with ceritinib (LDK378) for 4 hours or 8 days.
as §6

MGH049 cells [6] = assay: Cell colony formation assay, crystal violet; format: cell-based; settings: MGH049, 7 days; for cell growth inhibition as single agent (colony formation): ceritinib 0.5 μM or erlotinib 1 μM (FIG. 7); for anti-proliferative effect in combination with ceritinib versus ceritinib alone (colony formation): ceritinib 0.5 μM + erlotinib 1 μM (FIG. 7)
Source text: (§8) FIGS. 7A and 7B. […] For each cell line, all dishes were fixed, stained and photographed at the same time.

MGH051 cells [7] = assay: Cell colony formation assay, crystal violet; format: cell-based; settings: MGH051, 7 days; for cell growth inhibition as single agent (colony formation): ceritinib 0.5 μM or erlotinib 1 μM (FIG. 7); for anti-proliferative effect in combination with ceritinib versus ceritinib alone (colony formation): ceritinib 0.5 μM + erlotinib 1 μM (FIG. 7)
Source text: as §8

[8] = test system: ERK phosphorylation in MGH051 cells; assay: Western blotting, MGH051 cells, inhibitors added for last day of long-term ceritinib treatment; format: cell-based; settings: added for the last day of long-term (8 days) ceritinib treatment, MGH051 (FIG. 6)
Description: as §7, §6

MGH051 cells [9] = test system: MGH051 cells
Description: as §3, §4, §5

[10] = test system: HER3 activation in MGH051 cells; assay: Western blotting, MGH051 cells, inhibitors added for last day of long-term ceritinib treatment; format: cell-based; settings: added for the last day of long-term (8 days) ceritinib treatment, MGH051 (FIG. 6)
Description: FIG. 6. Addition of HER3 and EGFR inhibitors represses the rebound in AKT phosphorylation. MGH051 cells were treated with ceritinib (LDK378) for 4 hours or 8 days.
The activated states of ALK and HER3 of multiple NSCLC cell lines that harbor EML4-ALK translocations were assessed in both short-term and long-term cultures. […] In addition, the levels of pHER3 correlated with the duration of the treatments (FIG. 5). Next, we assessed the activation of the downstream signaling of HER3 and the repression of ceritinib-induced HER3 activation using various inhibitors.

H2228 tumors = assay: H2228 NSCLC xenograft efficacy; format: in vivo, female SCID-beige mice
Description: In this experiment female SCID Beige mice bearing H2228 tumors were used. At start, the mice were 8 to 12 weeks of age. First, the mice were inoculated with 4 mm^3 H2228 tumor fragments by subcutaneous injection in flank. The fragments were dipped in Matrigel before implanting. When tumors reached an average size of 100-150 mm^3 the treatment according to the scheme below commenced. The body weight was measured daily for the first 5 days and then biweekly until end. The tumor was measured biweekly by caliper until end. […] Dosing with the compounds ended on study day 32. After this the tumor size was monitored during an observation phase for re-growth.
The average tumor volume data in the graphs is not complete through the end of the study for all groups. Once a group lost more than 50% of the animals due to death or ethical sacrifice, the average tumor volume for the remaining animals in these groups was no longer graphed.

Cc1cc(Nc2ncc(Cl)c(Nc3ccccc3S(=O)(=O)C(C)C)n2)c(OC(C)C)cc1C1CCNCC1 [ceritinib, 5-chloro-N^2-(2-isopropoxy-5-methyl-4-(piperidin-4-yl)phenyl)-N^4-[2-(propane-2-sulfonyl)-phenyl]-pyrimidine-2,4-diamine]
reversal of growth inhibitory effect of ceritinib by secreted ligands (cell viability) (NCI-H2228 cells): Ligands for EGFR and ERBB3 clearly overcame the inhibitory effect of ceritinib
inhibition at 0.3 µM (MGH049 cells [1]): 20%
inhibition at 0.3 µM (MGH051 cells [2]): 70%
sensitivity of cell line to ceritinib alone (MGH049 cells [3]; MGH049, no ALK resistance mutations): resistant
HER3 phosphorylation [4]: induction of HER3 phosphorylation; also recorded: up-regulation of HER3 phosphorylation
AKT phosphorylation ([5]; ceritinib 8-day treatment): profound rebound in AKT phosphorylation
AKT phosphorylation ([5]; ceritinib initial (4 hours) treatment): initial inhibition of AKT phosphorylation
cell growth inhibition as single agent (colony formation) (MGH049 cells [6]): less effective
cell growth inhibition as single agent (colony formation) (MGH051 cells [7]): partially effective

C#Cc1cccc(Nc2ncnc3cc(OCCOC)c(OCCOC)cc23)c1 [erlotinib, N-(3-ethynylphenyl)-6,7-bis-(2-methoxyethoxy)quinazolin-4-amine]
rebound in AKT phosphorylation [5]: able to suppress the rebound in AKT phosphorylation
ERK phosphorylation [8]: enhanced inhibition of ERK phosphorylation
anti-proliferative effect in combination with ceritinib versus ceritinib alone (colony formation) (MGH049 cells [6]): greater anti-proliferative effect
anti-proliferative effect in combination with ceritinib versus ceritinib alone (colony formation) (MGH049 cells [6]; listed as Erlotinib): enhances the anti-proliferation activity of ceritinib
cell growth inhibition as single agent (colony formation) (MGH049 cells [6]): no effect on cell growth
anti-proliferative effect in combination with ceritinib versus ceritinib alone (colony formation) (MGH051 cells [7]): greater anti-proliferative effect
anti-proliferative effect in combination with ceritinib versus ceritinib alone (colony formation) (MGH051 cells [7]; listed as Erlotinib): enhances the anti-proliferation activity of ceritinib
cell growth inhibition as single agent (colony formation) (MGH051 cells [7]): no effect on cell growth

CN(C)C/C=C/C(=O)Nc1cc2c(Nc3ccc(F)c(Cl)c3)ncnc2cc1O[C@H]1CCOC1 [afatinib, (S,E)-N-(4-((3-chloro-4-fluorophenyl)amino)-7-((tetrahydrofuran-3-yl)oxy)quinazolin-6-yl)-4-(dimethylamino)but-2-enamide]
rebound in AKT phosphorylation [5]: able to suppress the rebound in AKT phosphorylation
ERK phosphorylation [8]: enhanced inhibition of ERK phosphorylation

CS(=O)(=O)CCNCc1ccc(-c2ccc3ncnc(Nc4ccc(OCc5cccc(F)c5)c(Cl)c4)c3c2)o1 [lapatinib, N-[3-chloro-4-(3-fluorobenzyloxy)phenyl]-6-{5-[4-(methylsulfonyl)-2-azabutyl]-2-furyl} quinazolin-4-amine]
cell growth, EGFR inhibitor in combination with ceritinib (MGH049 cells [3]): synergistically reduced cell growth
cell growth, EGFR inhibitor in combination with ceritinib (MGH051 cells [9]): synergistically reduced cell growth

Antibody A: anti-HER3 antibody comprising the sequences of MOR10703 as defined in Table 1
activation of HER3 [10]: markedly suppressed
rebound in AKT phosphorylation [5]: markedly suppressed
efficacy (tumor volume) of LDK378 in combination with the antibody (H2228 tumors; LDK378 25 or 50 mg/kg po qd × 32 + cetuximab 20 mg/kg ip biwk × 5 or Ab A 25 mg/kg ip qod × 17 (FIGS. 8A, 8B)): significantly improved efficacy of LDK378
efficacy of ceritinib with Antibody A and cetuximab combined (triple combination) (H2228 tumors; ceritinib + Antibody A + cetuximab): significantly improve the efficacy of ceritinib

Cc1cc(C(=O)Nc2nc3cccc(Cl)c3n2[C@@H]2CCCCN(C(=O)/C=C/CN(C)C)C2)ccn1 [compound A, (R,E)-N-(7-chloro-1-(1-(4-(dimethylamino)but-2-enoyl)azepan-3-yl)-1H-benzo[d]imidazol-2-yl)-2-methylisonicotinamide]
cell growth, EGFR inhibitor in combination with ceritinib (MGH049 cells [3]; in combination with 0.5 μM ceritinib, 6 days, MGH049 (FIG. 3)): synergistically reduced cell growth
cell growth, EGFR inhibitor in combination with ceritinib (MGH051 cells [9]; in combination with 0.5 μM ceritinib, 6 days, MGH051 (FIG. 4)): synergistically reduced cell growth
